Key:
Hep3B cells = assay: Induction of apoptosis (Caspase-Glo3/7) in Hep3B cells; assay type: cell-based; details: 6 hours, FIG. 3
Description: Hep3B cells were seeded at 20 k/well in 96-well white plates in 200 ul of DMEM/5% FBS overnight. The next day compound was added at a final DMSO concentration of 0.1% and incubated for 6 hours. Caspase activity was measured according to manufacture instruction (Caspase-Glo3/7 Assay (Promega)). Briefly, 100 ul of Caspase-Glo3/7 reagent was added to each well and incubated for 1 hour in the dark. Luminescence was measured using EnVision.

Hep3B xenograft tumors = assay: Hep3B liver cancer cell subcutaneous xenograft model, tumor volume; assay type: in vivo, Mus Musculus
Description: […] female nude mice (Mus Musculus) age 6 to 8 weeks were used. Tumor cell culture and inoculation: Hep3B cells were cultured with EMEM medium (Invitrogen, USA) supplemented with 10% FBS (Gibco, Australia). The cells were harvested in 90% confluence, and the viability was no less than 90%. Mice were implanted subcutaneously (s.c.) with 200 μL of 10×10^6 Hep3B cells in 50% Matrigel in the right flank at the beginning of the study.
Animal grouping and dosing schedule: Ten days after cell implantation, when tumors reached an average volume of 199 mm^3, 45 mice were selected based on tumor volume and randomly assigned to 5 treatment groups (n=9). The day of randomization was denoted as D0 and the treatment was started from then on.
(§1) Tumor volume and body weight measurements: Tumor size was measured twice per week in two dimensions using a caliper, and the volume was expressed in mm^3 using the formula: V=0.5 a×b^2 where a and b were the long and short diameters of the tumor, respectively. Body weight was measured at least twice weekly.
End of in vivo portion: Blood, tumors and livers were collected from 3 mice in each treated group at 4, 12 and 24 hours after the last dose. The left lobe of the liver was collected for pharmacodynamic (PD) studies, and the rest of the liver was stored in formalin for histology. The small tumors were prioritized for use in pharmacokinetic studies. Any remaining tumor was fixed for histological analysis first, and then was snap-frozen for the PD study.

wild type FGFR-1 = target: T1, wild type FGFR-1 (Homo sapiens, UniProt P11362); assay: FGFR-1 wild type assay at Km (Caliper mobility shift); assay type: biochemical; details: 400 uM ATP, 25 C, 90 minutes; read-out: FGFR1 IC50
T1 construct: purchased Carna Biosciences, Inc
T1 sequence (P11362 22-822): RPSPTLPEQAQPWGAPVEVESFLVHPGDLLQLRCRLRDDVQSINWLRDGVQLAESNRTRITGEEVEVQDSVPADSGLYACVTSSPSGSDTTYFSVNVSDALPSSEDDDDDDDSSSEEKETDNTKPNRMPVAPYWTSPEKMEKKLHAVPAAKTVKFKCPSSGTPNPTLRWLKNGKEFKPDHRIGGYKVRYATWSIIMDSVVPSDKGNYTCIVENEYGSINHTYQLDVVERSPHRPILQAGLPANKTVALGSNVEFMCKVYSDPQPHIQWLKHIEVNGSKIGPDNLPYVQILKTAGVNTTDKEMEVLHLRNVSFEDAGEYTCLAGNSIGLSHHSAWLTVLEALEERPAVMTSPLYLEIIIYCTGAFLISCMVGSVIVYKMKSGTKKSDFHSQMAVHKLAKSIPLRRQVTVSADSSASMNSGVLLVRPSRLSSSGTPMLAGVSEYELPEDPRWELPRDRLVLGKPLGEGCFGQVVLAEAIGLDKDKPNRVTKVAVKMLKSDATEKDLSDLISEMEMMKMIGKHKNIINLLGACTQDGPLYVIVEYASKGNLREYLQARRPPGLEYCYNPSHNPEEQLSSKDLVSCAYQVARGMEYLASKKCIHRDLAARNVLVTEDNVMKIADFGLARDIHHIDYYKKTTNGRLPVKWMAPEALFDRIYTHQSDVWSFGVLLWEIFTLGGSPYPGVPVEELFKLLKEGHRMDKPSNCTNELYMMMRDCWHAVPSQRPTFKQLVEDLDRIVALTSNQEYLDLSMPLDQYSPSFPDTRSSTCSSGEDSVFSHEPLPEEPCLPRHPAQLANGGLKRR
Description: (§2) In order to assess the activity of chemical compounds against the relevant kinase of interest, the Caliper LifeSciences electrophoretic mobility shift technology platform is utilized. Fluorescently labeled substrate peptide is incubated in the presence dosed levels of compounds, a set concentration of kinase and of ATP, so that a reflective proportion of the peptide is phosphorylated. At the end of the reaction, the mix of phosphorylated (product) and non-phosphorylated (substrate) peptides are passed through the microfluidic system of the Caliper LabChip® EZ Reader II, under an applied potential difference. The presence of the phosphate group on the product peptide provides a difference in mass and charge between the product peptide and the substrate peptide, resulting in a separation of the substrate and product pools in the sample. As the pools pass the LEDS within the instrument, these pools are detected and resolved as separate peaks. The ratio between these peaks therefore reflects the activity of the chemical matter at that concentration in that well, under those conditions.
(§3) The reaction was stopped by the addition of 70 ul of Stop buffer (100 mM HEPES pH 7.5, 0.015% Brij 35, 35 mM EDTA and 0.2% of Coating Reagent 3 (Caliper Lifesciences)). The plate was then read on a Caliper EZReader 2 (protocol settings: —1.9 psi, upstream voltage—700, downstream voltage—3000, post sample sip 35 s).

wild type FGFR-4 = target: T2, wild type FGFR-4 (Homo sapiens, UniProt P22455); assay: FGFR-4 wild type assay at Km (Caliper mobility shift); assay type: biochemical; details: for IC50: 400 uM ATP, 25 C, 90 minutes, read-out: FGFR4 IC50; for Ratio FGFR1/FGFR4: [IC50 for FGFR1]/[IC50 for FGFR4]
T2 construct: purchased Carna Biosciences, Inc
T2 sequence (P22455 22-802): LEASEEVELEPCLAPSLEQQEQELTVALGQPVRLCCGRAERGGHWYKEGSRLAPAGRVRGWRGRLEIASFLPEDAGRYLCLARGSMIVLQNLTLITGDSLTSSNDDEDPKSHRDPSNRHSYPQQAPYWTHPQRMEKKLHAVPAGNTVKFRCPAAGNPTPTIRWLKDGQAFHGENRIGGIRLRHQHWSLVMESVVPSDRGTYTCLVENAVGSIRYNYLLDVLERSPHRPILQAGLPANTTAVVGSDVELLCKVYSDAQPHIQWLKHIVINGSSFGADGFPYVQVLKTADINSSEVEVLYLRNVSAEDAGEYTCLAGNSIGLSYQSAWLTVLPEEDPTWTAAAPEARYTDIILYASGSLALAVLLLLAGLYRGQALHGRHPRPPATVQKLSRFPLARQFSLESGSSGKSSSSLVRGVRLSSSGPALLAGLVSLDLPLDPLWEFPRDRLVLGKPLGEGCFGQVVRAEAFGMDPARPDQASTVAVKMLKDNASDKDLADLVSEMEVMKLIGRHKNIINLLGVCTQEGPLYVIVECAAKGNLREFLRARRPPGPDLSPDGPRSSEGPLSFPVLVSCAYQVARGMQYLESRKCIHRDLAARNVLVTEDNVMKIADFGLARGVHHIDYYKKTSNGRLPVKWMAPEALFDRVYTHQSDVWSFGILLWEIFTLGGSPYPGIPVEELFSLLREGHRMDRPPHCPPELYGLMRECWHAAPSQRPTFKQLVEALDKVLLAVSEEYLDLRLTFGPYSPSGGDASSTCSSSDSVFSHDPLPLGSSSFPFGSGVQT
Description: as §2
as §3, with “LabChip® EZ Reader II” for “EZReader 2”

[1] = assay type: in vivo; details: 100 and 300 mg/kg PO BID, nude mice
Description: as §1
Body weight change (%) of Hep3B-bearing nude mice: FIG. 8 is a line graph depicting the body weight change (%) during the entire study period.

FGFR-4 = FGFR-4 (Homo sapiens, UniProt P22455); assay: Crystal structure of compound bound to FGFR-4 (Cys552); assay type: binding; details: FIG. 4, FIG. 5
Sequence of FGFR-4 (P22455 22-802): as above

Row | SMILES | IC50 (wild type FGFR-1) [nM] | Ratio FGFR1/FGFR4 (wild type FGFR-4) | other results
1 | CCN1CCN(c2ccc(Nc3cc(N(C)C(=O)Nc4c(Cl)c(OC)cc(OC)c4Cl)ncn3)cc2)CC1 [BGJ398, reference compound] |  |  | induction of apoptosis (Caspase activity) (Hep3B cells): induction of apoptosis, although at a higher concentration; tumor volume compared with vehicle group (Hep3B xenograft tumors; 20 mg/kg PO QD, entire study): significant difference in tumor volume between BGJ398 (20 mg/kg PO QD) and vehicle groups was not observed
2 | C=CC(=O)Nc1ccccc1Nc1nccc(N2CCN(C(=O)Nc3ccc(C#N)cc3)CC2)n1 [COMPOUND 23] | > 1000 | A (the ratio is >500) | IC50 (wild type FGFR-4): 100 to 1000 nM
3 | C=CC(=O)Nc1cccc(C)c1Nc1ncc2cc(-c3c(Cl)c(OC)cc(OC)c3Cl)ccc2n1 [COMPOUND 25, N-(2-((6-(2,6-dichloro-3,5-dimethoxyphenyl)quinazolin-2-yl)amino)-3-methylphenyl)acrylamide] | 100 to 1000 |  | induction of apoptosis (Caspase activity) (Hep3B cells): potent induction of apoptosis; tolerability (body weight change) [1]: well tolerated; tumor regression (Hep3B xenograft tumors; 100 mg/kg PO BID): regressed; tumor volume compared with vehicle group (Hep3B xenograft tumors; 100 mg/kg PO BID, Day 4 to Day 19): Statistically significant reduction of tumor volumes; tumor regression (Hep3B xenograft tumors; 300 mg/kg PO BID): almost disappeared; tumor volume compared with vehicle group (Hep3B xenograft tumors; 300 mg/kg PO BID, Day 4 to Day 19): Statistically significant reduction of tumor volumes
4 | C=CC(=O)Nc1cccc(F)c1Nc1ncc2cc(-c3c(Cl)c(OC)cc(OC)c3Cl)ccc2n1 [COMPOUND 27] | 10 to 100 | C (the ratio is ≧100 and <200) | 
5 | C=CC(=O)Nc1ccccc1Nc1cc2c(cn1)cc(-c1c(Cl)c(OC)cc(OC)c1Cl)c(=O)n2C [COMPOUND 31] | 10 to 100 | B (the ratio is ≧200 and <500) | 
6 | C=CC(=O)Nc1ccc(F)c(F)c1Nc1ncc2cc(-c3c(Cl)c(OC)cc(OC)c3Cl)ccc2n1 [COMPOUND 37] | 100 to 1000 | C (the ratio is ≧100 and <200) | 
7 | C=CC(=O)Nc1ccccc1-c1ccn2c(-c3cc(NC(=O)NCC(F)(F)F)cc(OC(C)C)c3)cnc2c1 [COMPOUND 38, N-(2-(3-(3-isopropoxy-5-(3-(2,2,2-trifluoroethyl)ureido)phenyl)imidazo[1,2-a]pyridin-7-yl)phenyl)acrylamide] | > 1000 | E (the ratio is ≧10 and <50) | IC50 (wild type FGFR-4): 100 to 1000 nM
8 | C=CC(=O)Nc1cccc(F)c1Nc1cc2c(cn1)cc(-c1c(Cl)c(OC)cc(OC)c1Cl)c(=O)n2C [COMPOUND 46] | 100 to 1000 | E (the ratio is ≧10 and <50) | 
9 | C=CC(=O)Nc1cccc(F)c1Nc1ncc2cc(-c3c(Cl)c(OC)cc(OC)c3Cl)cc(OC)c2n1 [COMPOUND 47] | 10 to 100 | B (the ratio is ≧200 and <500) | 
10 | C=CC(=O)Nc1cccc(C)c1Nc1ncc2c(n1)N(C)C(=O)N(c1c(Cl)c(OC)cc(OC)c1Cl)C2 [COMPOUND 48, N-(2-((6-(2,6-dichloro-3,5-dimethoxyphenyl)-8-methyl-7-oxo-5,6,7,8-tetrahydropyrimido[4,5-d]pyrimidin-2-yl)amino)-3-methylphenyl)acrylamide] | 100 to 1000 | E (the ratio is ≧10 and <50) | 
11 | C=CS(=O)(=O)Nc1cccc(C)c1Nc1ncc2cc(-c3c(Cl)c(OC)cc(OC)c3Cl)ccc2n1 [COMPOUND 49A] | 100 to 1000 | E (the ratio is ≧10 and <50) | IC50 (wild type FGFR-4): 10 to 100 nM
12 | C=CC(=O)Nc1cccc(C(F)(F)F)c1Nc1ncc2cc(-c3c(Cl)c(OC)cc(OC)c3Cl)ccc2n1 [COMPOUND 51] | > 1000 | F (the ratio of [IC50 for FGFR1]/[IC50 for FGFR4] is less than 10) | IC50 (wild type FGFR-4): 10 to 100 nM
13 | C=CC(=O)N(CCCCN(CC)CC)c1ncc2cc(-c3cc(OC)cc(OC)c3)c(NC(=O)NC(C)(C)C)nc2n1 [COMPOUND 52, N-(7-(3-(tert-butyl)ureido)-6-(3,5-dimethoxyphenyl)pyrido[2,3-d]pyrimidin-2-yl)-N-(4-(diethylamino)butyl)acrylamide] | 10 to 100 | C (the ratio is ≧100 and <200) | binding site in crystal structure (FGFR-4): binds to the cysteine at residue 552 of FGFR-4
14 | C=CC(=O)Nc1cc(N2CCOCC2)cc(C)c1Nc1ncc2cc(-c3c(Cl)c(OC)cc(OC)c3Cl)ccc2n1 [COMPOUND 53] | 100 to 1000 | C (the ratio is ≧100 and <200) | 
15 | CNC(=O)c1cc(Oc2ccc(NC(=O)Nc3ccc(Cl)c(C(F)(F)F)c3)cc2)ccn1 [Sorafenib, reference compound] |  |  | tumor volume compared with vehicle group (Hep3B xenograft tumors; 30 mg/kg PO QD, Day 4 to Day 19): Statistically significant reduction of tumor volumes

— patent US20140187559A1, “INHIBITORS OF THE FIBROBLAST GROWTH FACTOR RECEPTOR” (BLUEPRINT MEDICINES CORPORATION, priority 2012, published 2014)
